pIC50: −log10 of the molar value. “Also recorded” adds a separate entry of the source.
How the values were obtained:
[1] = test system: Hsp70 promoter (1.5 kb region upstream of the start codon of the human HSPA1A gene) in 50B11 cells; experiment: Luciferase reporter assay assessing Hsp70 induction; assay type: cell-based; conditions: for Hsp70 induction (luciferase), Mean: 50B11 cells treated 16 hrs, DMSO (negative control) assigned a value of 100
Procedure: The luciferase reporter assay was performed using a 1.5 kb region upstream of the start codon of the human HSPA1A gene to drive luciferase expression as previously described. 50B11 cells (Chen, et al., 2007) were grown in 10 cm dishes in maintenance medium and the cells were transfected using lipofectamine. Twenty four hour after transfection, the cells were re-seeded into 24 well plates at a density of 2×10^5 cells per well. After a 6 hrs period to permit attachment, the cells were treated with the indicated compounds for 16 hrs. Luciferase activity was assessed and normalized to the total protein concentration of each well.

[2] = test system: Hsp70 protein expression in 50B11 cells; experiment: Immunoblot analysis of Hsp70 protein expression; assay type: cell-based; conditions: 24 hr, 1 μM, FIGS. 3A & 3B
Procedure: FIGS. 3A & 3B show the induction of Hsp70 protein expression by some of the compounds described herein. […] In the immunoblot analysis, 50B11 cells were treated for 24 hr with 1 μM of the indicated analogs or 250 nM geldanamycin (GDA) as a positive control. […] Results are mean±standard error of the mean (SEM) (n=6). […] The remaining para-substituted and ortho-substituted compounds were similarly effective.
50B11 cells were treated with the indicated compounds for 24 hrs and were scraped into lysis buffer containing 50 mM Tris-HCl, pH 7.4, 150 mM NaCl, 1 mM EDTA, 1% NP-40, 0.5 mM sodium orthovandate, 40 mM NaF, 10 mM β-glycerophosphate, and Complete Protease Inhibitors (Roche Diagnostics). After 15 minutes on ice, the lysates were sonicated then centrifuged at 10,000×g for 10 min at 4° C. The protein concentration of the supernatant was estimated using a Bio-Rad protein assay and bovine serum albumin as the standard. Following SDS-PAGE, the proteins were transferred to nitrocellulose and the membrane incubated with 5% non-fat dry milk in phosphate buffered saline containing 0.1% Tween 20 (PBST) for 1-2 hrs at room temperature. The blots were probed with primary antibodies recognizing Hsp70 or R-actin at 4° C. overnight. The membranes were washed with PBST and subsequently incubated with HRP-conjugated secondary antibodies and immunoreactive proteins were visualized using chemiluminescence detection (GE Healthcare Life Sciences, Little Chalfont, Buckinghamshire, UK). The films were digitally scanned and densitometrically analyzed using ImageJ (NIH) software. Client protein degradation in MCF7 cells was performed as previously described (Urban, et al., 2010).

50B11 cells = experiment: Mitochondrial bioenergetic assessment (XF96 extracellular flux analyzer, OCR and ECAR); assay type: cell-based; conditions: 24 hrs, FIG. 4
Procedure: 50B11 cells were treated for 24 hr with DMSO (1), 10 nM (2,6,10), 100 nM (3,7,11), 500 nM (4,8,12) or 1,000 nM (5,9,13) of compounds 74 (2-5), 75 (6-9) or 59 (10-13). Mitochondrial respiration was measured in the intact cells using an XF96 extracellular flux analyzer that provides concurrent measures of mitochondrial oxygen consumption rate (OCR) and extracellular acidification rate (ECAR) as an indication of glycolytic activity. Results are plotted OCR versus ECAR. The net effect of the drugs on oxidative phosphorylation and glycolysis is indicated in each quadrant. Results are mean±standard error of the mean (SEM) (n=6).
Oxygen consumption rate (OCR) was assessed in the 50B11 transformed sensory neuron cell line, using an XF96 Extracellular Flux Analyzer (Seahorse Biosciences, North Billerica, Mass.). 50B11 cells were seeded into the 96 well plates at 40,000 cells per well and maintained in high glucose DMEM supplemented with 10% fetal bovine serum (Atlas Biologics, Fort Collins Colo.), 5 μg/ml blasticidin and antibiotics at 37° C. The maintenance media was changed to serum free unbuffered DMEM supplemented with 1 mM pyruvate and 5.5 mM D-glucose and the cells incubated at 37° C. in room air for one hour before starting the assay. After introducing the plate into the XF96 analyzer, the basal oxygen consumption rate (OCR) was measured prior to the addition of 1 μg/ml oligomycin to inhibit the ATP synthase to measure the portion of the basal OCR that was coupled to ATP synthesis; residual OCR after oligomycin treatment is from uncoupled respiration (proton leak). […]
After the respiratory measures, the cells were harvested and the protein content of each well determined using a Bradford protein assay. OCR values were normalized to the total protein content of each well and ATP-linked respiration, proton leak, maximal respiratory capacity, spare respiratory capacity and respiratory control ratio were determined as described (Brand and Nicholls, 2011; Chowdhury, et al., 2012)

[3] = target: Hsp90 C-terminus nucleotide binding pocket; conditions: low affinity; cited from earlier work
[4] = 10 nM to 1,000 nM, FIG. 2, Table 2

CC(=O)NCCc1ccc(O)cc1-c1cccc(F)c1 [Compound 20]
Hsp70 induction in luciferase assay (in words) [1, 4]: inactive | Hsp70 induction (luciferase), Mean ([1]; 10 nM): 88.07 | Hsp70 induction (luciferase), Mean ([1]; 100 nM): 87.40 | Hsp70 induction (luciferase), Mean ([1]; 500 nM): 93.87 | Hsp70 induction (luciferase), Mean ([1]; 1000 nM): 96.56

CC(=O)NCCc1ccc(OC2CCC(OCc3ccccc3)CC2)cc1-c1cccc(F)c1 (centres unmarked) [Compound 44, N-(2-(5-((4-(benzyloxy)cyclohexyl)oxy)-3′-fluoro-[1,1′-biphenyl]-2yl)ethyl)acetamide]
Hsp70 protein expression (immunoblot, in words) [2]: induced Hsp70 protein expression | Hsp70 induction in luciferase assay (in words) ([1]; 500 nM and 1,000 nM, FIG. 1): highest level of Hsp70 expression

CC(=O)NCCc1ccc(OC2CCC(OCc3ccc(Cl)cc3)CC2)cc1-c1cccc(F)c1 (centres unmarked) [Compound 59, N-(2-(5-((4-((4-chlorobenzyl)oxy)cyclohexyl)oxy)-3′-fluoro-[1,1′-biphenyl]-2-yl)ethyl)acetamide]
Hsp70 protein expression (immunoblot, in words) [2]: less effective | Cellular respiration (in words) (50B11 cells): decreased cellular respiration | Hsp70 induction in luciferase assay (in words) [1, 4]: robust induction of luciferase activity

CC(=O)NCCc1ccc(OC2C=CC(OCc3ccc(Cl)cc3)CC2)cc1-c1cccc(F)c1 (centres unmarked) [Compound 74]
Hsp70 protein expression (immunoblot, in words) [2]: equivalent levels of Hsp70 induction

CC(=O)NCCc1ccc(OC2CCC(OCc3ccc(Cl)cc3)[C@@H](O)[C@H]2O)cc1-c1cccc(F)c1 (stereo partly drawn) [Compound 75, N-(2-(5-(((2R,3S)-4-((4-chlorobenzyl)oxy)-2,3-dihydroxycyclohexyl)oxy)-3′-fluoro-[1,1′-biphenyl]-2-yl)ethyl)acetamide]
Hsp70 protein expression (immunoblot, in words) [2]: equivalent levels of Hsp70 induction; also recorded: increased Hsp70 protein expression | Oxidative phosphorylation and glycolysis (OCR versus ECAR, in words) (50B11 cells; 10 nM to 1,000 nM): more effective at dose dependently increasing oxidative phosphorylation and glycolysis | Cellular respiration (in words) (50B11 cells): increased cellular respiration | Hsp70 induction in luciferase assay (in words) [1, 4]: good induction of Hsp70

CC(=O)Nc1cc2ccc(OC3CCC(OCc4ccccc4)CC3)c(C)c2oc1=O (centres unmarked) [Compound 77]
Hsp70 induction (luciferase), Mean ([1]; 10 nM): 146.19 | Hsp70 induction (luciferase), Mean ([1]; 100 nM): 106.40 | Hsp70 induction (luciferase), Mean ([1]; 500 nM): 102.93 | Hsp70 induction (luciferase), Mean ([1]; 1000 nM): 100.29

CC(=O)Nc1cc2ccc(OC3CCC(OCc4ccc(Cl)cc4)CC3)c(C)c2oc1=O (centres unmarked) [Compound 78]
Hsp70 induction (luciferase), Mean ([1]; 10 nM): 85.73 | Hsp70 induction (luciferase), Mean ([1]; 100 nM): 94.52 | Hsp70 induction (luciferase), Mean ([1]; 500 nM): 97.39 | Hsp70 induction (luciferase), Mean ([1]; 1000 nM): 105.69

CC(=O)Nc1cc2ccc(OC3CCC(OCc4ccccc4Br)CC3)c(C)c2oc1=O (centres unmarked) [Compound 79, N-(7-((4-((2-bromobenzyl)oxy)cyclohexyl)oxy)-8-methyl-2-oxo-2H-chromen-3-yl)acetamide]
Hsp70 induction (luciferase), Mean ([1]; 10 nM): 105.83 | Hsp70 induction (luciferase), Mean ([1]; 100 nM): 102.65 | Hsp70 induction (luciferase), Mean ([1]; 500 nM): 97.09 | Hsp70 induction (luciferase), Mean ([1]; 1000 nM): 91.42

COc1ccccc1COC1CCC(Oc2ccc3cc(NC(C)=O)c(=O)oc3c2C)CC1 (centres unmarked) [Compound 80, N-(7-((4-((2-methoxybenzyl)oxy)cyclohexyl)oxy)-8-methyl-2-oxo-2H-chromen-3-yl)acetamide]
Hsp70 induction (luciferase), Mean ([1]; 10 nM): 130.87 | Hsp70 induction (luciferase), Mean ([1]; 100 nM): 151.51 | Hsp70 induction (luciferase), Mean ([1]; 500 nM): 129.16 | Hsp70 induction (luciferase), Mean ([1]; 1000 nM): 142.77

CO[C@@H]1[C@@H](OC(N)=O)[C@@H](O)[C@H](Oc2ccc3c(O)c(NC(=O)c4ccc(O)c(CC=C(C)C)c4)c(=O)oc3c2C)OC1(C)C [novobiocin]
pIC50 [3]: ~3.15
